Data published in paper PMC5128743, “Marine Fungi as Producers of Benzocoumarins, a New Class of Inhibitors of Glycogen-Synthase-Kinase 3β” (Marine Drugs, 2016).
Like-named read-outs stand apart in the source and are kept apart here.

How the values were obtained:
[1] = target: T1, GSK-3β (N-terminal His6-tagged recombinant human GSK3β with an H350L mutation) (Homo sapiens, UniProt P49841); assay: GSK-3β luminescent (Kinase-Glo) inhibition assay; format: biochemical
T1 construct: His6 (N); purchased EMD Millipore, Billerica, MA, USA
Protocol: (§1) The assay is based on the phosphorylation of a peptide by the enzyme with ATP as phosphate donor. ATP, luciferin, and oxygen react to oxyluciferin, which is measured as a luminescence signal. The more the enzyme is inhibited, the stronger the luminescence signals are because of high ATP levels. 20 μL substrate solution (2 μM ATP, 40 μM peptide HSSPHQ-pSer-EDEEE (BIOSYNTAN, Berlin, Germany)) and 10 μL enzyme solution (12 mU GSK-3β (N-terminal His6-tagged recombinant human GSK3β with an H350L mutation, EMD Millipore, Billerica, MA, USA)) were incubated for 60 min at 25 °C. Then 40 μL Kinase-Glo reagent (Kinase-Glo Luminescent Assay Kit, Promega, Darmstadt, Germany) was added. After centrifugation and incubation for 10 min at 25 °C, the luminescence was measured. […] The antimicrobial activities of compounds 1, 2, and 3 against the bacterium Bacillus subtilis (DSM 347) and the human pathogenic yeast Candida albicans (DSM 1386) were determined according to Ohlendorf et al.. The determination of inhibitory activities against Xanthomonas campestris, Septoria tritici, and Propionibacterium acnes, as well as the cytotoxic activity against the cell line […] was carried out as described by Schneemann et al..

[2] = system: Bacillus subtilis (DSM 347); assay: Growth inhibition of Bacillus subtilis; format: cell-based
Protocol: as §1

Staphylococcus lentus = assay: Growth inhibition of Staphylococcus lentus; format: cell-based; details: Mammaliicoccus lentus; test concentration of 100 μM; read-out: inhibition of growth of S. lentus
HepG2 = assay: Cytotoxic activity against cancer cell line HepG2; details: concentration not given
Protocol: as §1

[3] = system: HMGCoA (3-hydroxy-3-methylglutaryl coenzyme A reductase); parameters: method as in PMID 1880066; details: cited from earlier work
[4] = luminescent assay, 2 μM ATP substrate solution, 60 min at 25 °C
[5] = DSM347, read-out: inhibition of growth of B. subtilis

T1 sequence (P49841 whole entry, stated change not applied): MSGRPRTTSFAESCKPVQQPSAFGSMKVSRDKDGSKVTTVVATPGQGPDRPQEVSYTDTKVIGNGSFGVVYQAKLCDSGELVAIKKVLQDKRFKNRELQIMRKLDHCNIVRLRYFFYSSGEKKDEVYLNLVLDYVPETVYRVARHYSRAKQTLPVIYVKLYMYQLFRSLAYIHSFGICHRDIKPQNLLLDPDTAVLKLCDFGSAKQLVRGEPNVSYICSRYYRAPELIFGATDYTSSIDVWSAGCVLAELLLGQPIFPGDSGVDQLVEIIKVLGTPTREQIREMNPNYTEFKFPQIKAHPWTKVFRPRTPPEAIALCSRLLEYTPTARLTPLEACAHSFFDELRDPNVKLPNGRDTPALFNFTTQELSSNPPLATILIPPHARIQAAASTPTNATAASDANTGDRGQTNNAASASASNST

**Q.** Which results are given for Cc1cc2cc(O)cc(O)c2c2oc(=O)cc(O)c12 [Compound 1, pannorin]?
**A.** IC50 of GSK-3β inhibition [1, 4]: sub-μM; IC50 ([1]; luminescent assay, 2 μM ATP substrate solution, 60 min at 25 °C, read-out: IC50 of GSK-3β inhibition): 350 ± 40 nM; inhibition at 100 µM ([2]; DSM347, test concentration of 100 μM, read-out: inhibition of growth of B. subtilis): 54%; inhibition at 100 µM (Staphylococcus lentus): 88%; inhibition (cytotoxic effect) of cancer cell line HepG2 (HepG2): lower than 35%; HMGCoA reductase inhibiting activity [3]: inhibiting activity

**Q.** Which results are given for Cc1cc(O)cc2oc(=O)c3c(O)cc(O)cc3c12 [Compound 2, alternariol]?
**A.** IC50 [1]: 130 ± 40 nM; IC50 of GSK-3β inhibition [1, 4]: sub-μM; inhibition at 100 µM [2, 5]: 79%; inhibition at 100 µM (Staphylococcus lentus): 66%; inhibition (cytotoxic effect) of cancer cell line HepG2 (HepG2): lower than 35%

**Q.** With COc1cc(O)c2c(=O)oc3cc(O)cc(C)c3c2c1 [Compound 3, alternariol-9-methylether] as the molecule, how does the IC50 [1] read?
**A.** 200 ± 20 nM

**Q.** And the “IC50 of GSK-3β inhibition” value [1, 4]?
**A.** sub-μM

**Q.** What about the inhibition at 100 µM [2, 5] of the same molecule?
**A.** 82%

**Q.** And the inhibition at 100 µM (Staphylococcus lentus)?
**A.** 25%

**Q.** And the “inhibition (cytotoxic effect) of cancer cell line HepG2” value (HepG2)?
**A.** lower than 35%
